Test results as given in PubChem BioAssay (NCI).
Where “and” joins values, the source holds several entries; their conditions need not be identical. Equal entries are not always repeated.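 Test compounds were applied to cells in 96-well plates for 48 hours at 5 doses. GI50 = concentration required for 50% inhibition of growth. TGI denotes the concentration required for complete inhibition of growth.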

How the values were obtained:
Assay in all cases: NCI anticancer screen, dose series, 48 h
[1] = test system: MDA-MB-435
[2] = test system: EKVX NSCLC
[3] = test system: HT29 colon
[4] = test system: HOP-92 NSCLC
[5] = test system: OVCAR-8 ovarian
[6] = test system: 786-0 renal
[7] = test system: NCI-H460 lung
[8] = test system: T-47D breast
[9] = test system: NCI/ADR-RES ovarian
[10] = test system: SK-OV-3 ovarian

| Compound | GI50 [1] | TGI [1] | GI50 [2] | TGI [2] | GI50 [3] | TGI [3] | GI50 [4] | TGI [4] | GI50 [5] | TGI [5] | GI50 [6] | TGI [6] | GI50 [7] | TGI [7] | GI50 [8] | TGI [8] | GI50 [9] | TGI [9] | GI50 [10] | TGI [10] |
| --- | --- | --- | --- | --- | --- | --- | --- | --- | --- | --- | --- | --- | --- | --- | --- | --- | --- | --- | --- | --- |
| CC(C)(C)CC(C)(C)c1ccc(O)c(Cc2ccc(Cl)cc2Cl)c1 | 1.65 µM | 3.01 µM | 1.57 µM | 2.94 µM | 1.67 µM | 3.03 µM | 1.39 µM | 2.76 µM | 1.61 µM | 2.96 µM | 1.65 µM | 3.1 µM | 1.62 µM | 2.97 µM | 1.35 µM | 2.69 µM | 1.65 µM | 3.05 µM | 1.5 µM | 2.82 µM |
| COc1cc(-c2nc3sc(C)cn3c2/C=C2\C(=O)Nc3ccccc32)c(Br)c(OC)c1OC | 4.88 µM | 23.2 µM | 39.3 µM | > 100 µM | 26.9 µM | 55.5 µM | 26.7 µM | 77 µM | > 100 µM | > 100 µM | 21.6 µM | 50.5 µM | 30.5 µM | 94.8 µM | 47.7 µM | > 100 µM | 28.3 µM | 82.5 µM | 28.9 µM | 73.8 µM |
| O=C1CC(c2ccccc2)Cc2nc3ccc(Br)cc3cc21 (configuration not stated) | 0.0328 µM | 0.126 µM | 0.78 µM | > 100 µM | 0.244 µM | > 100 µM | 0.45 µM | 46.1 µM | 0.4 µM | > 100 µM | 0.667 µM | > 100 µM | 0.339 µM | 13.7 µM | 5.68 µM | > 100 µM | 0.0748 µM | 9.03 µM | 0.694 µM | > 100 µM |
| Oc1c(Cl)cc(Cl)cc1/C=N/Nc1nnc(N/N=C/c2cc(Cl)cc(Cl)c2O)c2ccccc12 | 0.484 µM | > 30.9 µM | 0.429 µM | > 100 µM | 0.595 µM | > 100 µM | 0.284 µM |  | 0.406 µM | > 100 µM | 0.418 µM | > 100 µM | 0.34 µM | 2.26 µM | 0.506 µM | > 100 µM | 0.363 µM | > 100 µM | 0.563 µM | > 81.7 µM |
| O=C(COc1cccc(/C=C2\CSc3ccc(Cl)cc3C2=O)c1)c1ccc(Cl)cc1 | 2.29 µM | 8.09 µM | 10.6 µM | 38 µM | 2.08 µM | 4.18 µM | 0.666 µM | 9.8 µM | 5.1 µM | > 100 µM | 14.5 µM | 29.5 µM | 23.1 µM | > 100 µM | 0.993 µM | 18.4 µM | 11.3 µM | 31.4 µM | 20.4 µM | 97.5 µM |
| COc1cc(/C=C/c2cc(/C=C/c3ccc(O)c(OC)c3)n(C(=O)Nc3ccccc3Cl)n2)ccc1O | 0.0738 µM | 0.236 µM | 0.671 µM | 3.84 µM | 0.323 µM | 1.36 µM | 0.349 µM | 2.39 µM | 0.378 µM | 1.6 µM | 0.426 µM | 1.57 µM | 0.331 µM | 1.25 µM | 0.821 µM | 2.79 µM | 0.247 µM | 7.91 µM | 0.401 µM | 2.35 µM |
| CC(C)(C)c1cc(NC(=O)Nc2ccc(-c3cn4c(n3)sc3cc(OCCN5CCOCC5)ccc34)cc2)no1 | 6.85 µM and 4.32 µM and 7.3 µM | 27.7 µM and 21.2 µM and > 10 µM | 13 µM and 4.34 µM and > 10 µM | 34.9 µM and 21.6 µM and > 10 µM | 5.61 µM and 0.633 µM and 4.28 µM | 27 µM and 11.4 µM and > 10 µM | 3.25 µM and 0.398 µM and 1.59 µM | 14.8 µM and 5.01 µM and > 10 µM | 1.14 µM and 0.544 µM and 1.51 µM | 12.3 µM and 11.8 µM and > 10 µM | 2.85 µM and 0.616 µM and 4.06 µM | 15.8 µM and 3.29 µM and > 10 µM | 3.72 µM and 0.657 µM and 4.56 µM | 16.1 µM and 10.4 µM and > 10 µM | 0.0864 µM and 0.107 µM and 0.223 µM |  | 2.81 µM and 4.61 µM and 7.95 µM | 24.7 µM and 19.2 µM and > 10 µM | 7.33 µM and 5.07 µM and > 10 µM | 22.4 µM and 19.2 µM and > 10 µM |
| O=C(O)c1cc(=O)cc(C(=O)O)o1 | > 100 µM | > 100 µM | > 100 µM | > 100 µM | > 100 µM | > 100 µM | > 100 µM | > 100 µM |  |  | > 100 µM | > 100 µM | > 100 µM | > 100 µM | > 100 µM | > 100 µM | > 100 µM | > 100 µM | > 100 µM | > 100 µM |
| COc1ccc(CCN(CC(=O)N(CC(N)=O)C2CCC[C@@H]2OCc2ccccc2)C(=O)CN(C(=O)CN(CCc2ccc(Cl)cc2)C(=O)CN(C(=O)CN(C)Cc2ccccc2F)[C@H](C)C2CCCCC2)[C@H](C)C2CCCCC2)cc1OC (some centres not stated) | 1.58 µM | > 50 µM | 2.85 µM | > 50 µM | 1.25 µM | 5.75 µM | 1.3 µM | 31.3 µM | 2.82 µM | > 50 µM | 2.14 µM | > 50 µM | 1.94 µM | > 50 µM | 1.43 µM | > 50 µM | > 50 µM | > 50 µM | 2.5 µM | > 50 µM |
| COC(=O)c1cc2oc(/C=C3/SC(=S)N(N)C3=O)cc2n1Cc1ccccc1 | 6.65 µM | > 41.5 µM | 7.17 µM | > 81.8 µM | 7.47 µM | 19.4 µM | 1.47 µM | 12.8 µM | 3.24 µM | 22.7 µM | 2.84 µM | 8.53 µM | 3.02 µM | 11.6 µM | 3.33 µM | 10.1 µM | 4.61 µM | 26.9 µM | 4.25 µM | 20 µM |
| Oc1ccc2c3c1OC1c4[nH]ncc4C[C@H]4[C@@H](C2)N(CC2CC2)CC[C@]314 (some centres not stated) |  | > 100 µM |  | > 100 µM |  | > 100 µM |  | > 100 µM |  | > 100 µM |  | > 100 µM |  | > 100 µM |  | > 100 µM |  | > 100 µM |  | > 100 µM |
| CN(C)CCCSc1ccccc1NC1=C(Cl)C(=O)C(Nc2ccccc2SCCCN(C)C)=C(Cl)C1=O | 2.06 µM | 4.52 µM | 1.81 µM | 3.38 µM | 2.13 µM | 4.16 µM | 1.48 µM | 3.06 µM | 2.03 µM | 3.99 µM | 1.72 µM | 3.17 µM | 4.49 µM | 16.3 µM | 1.45 µM | 3.98 µM | 3.21 µM | 18.7 µM | 12.5 µM | 25 µM |
| CCOC(=O)C1=C(C)NC(=O)NC1CN1C(=O)c2ccccc2C1=O (configuration not stated) | > 100 µM | > 100 µM | > 100 µM | > 100 µM | > 100 µM | > 100 µM | > 100 µM | > 100 µM | > 100 µM | > 100 µM | > 100 µM | > 100 µM | > 100 µM | > 100 µM | > 100 µM | > 100 µM | > 100 µM | > 100 µM | > 100 µM | > 100 µM |
| CC1(C)N=C(N)N=C(N)N1c1ccc(Cl)cc1 | 1.18 µM | > 100 µM | 0.763 µM | > 100 µM | 1.19 µM | > 100 µM | > 100 µM | > 100 µM | 2.17 µM | > 100 µM | 0.414 µM | > 100 µM | 2.82 µM | > 100 µM | > 100 µM | > 100 µM | > 100 µM | > 100 µM | 43 µM | > 100 µM |
| C=CC(=O)N1C[C@@H]2CCOc3c(Cl)c(-c4c(O)cccc4F)c(F)c4ncnc(c34)N2C[C@H]1C | 11.8 µM | 29.6 µM | 14.4 µM | 27.8 µM | 18.6 µM | 52.5 µM | 17 µM | 39 µM | 16.5 µM | 56.6 µM | 14.7 µM | 29.4 µM | 15.2 µM | 32.1 µM | 14.9 µM | 87.4 µM | 17.4 µM | 62.6 µM | 17.3 µM | 42.7 µM |
| CC(C)(C)c1cc(/C=N/NC(=O)c2ccccc2NC(=O)c2cccs2)c(O)c(C(C)(C)C)c1 | 2.46 µM | 77.7 µM | 0.365 µM | > 100 µM | 0.798 µM | > 100 µM | 4.44 µM | 80.5 µM | 0.895 µM | 11.2 µM | 0.588 µM | 15.7 µM | 0.331 µM | 1.98 µM | 1.85 µM | 29.4 µM | 0.606 µM | 15.9 µM | 1.29 µM | > 100 µM |
| Cn1c(=O)nc2n(-c3ccc(Cl)cc3)c3cc(Cl)ccc3nc-2c1=O |  | 3.14 µM |  | 17.7 µM |  | 9.57 µM |  | 18.5 µM |  | 6.2 µM |  | 23.7 µM |  | 27.1 µM |  | 2.03 µM |  | 35.6 µM |  | 34.6 µM |
| O=C(C=P(c1ccccc1)(c1ccccc1)c1ccccc1)CCl | 0.894 µM | 2.34 µM |  |  | 1.13 µM | 2.8 µM | 0.142 µM | 0.693 µM | 0.918 µM | 3.8 µM | 1.61 µM | 3.56 µM | 1.52 µM | 3.6 µM | 1.04 µM | 2.99 µM | 1.86 µM | 10.5 µM | 4.67 µM | 16.1 µM |
| Cn1cc(C2=C(c3cn(-c4ccccc4)c4ccccc34)C(=O)NC2=O)c2ccccc21 | 6.01 µM | > 20.5 µM |  |  | 9.56 µM | > 25 µM | > 25 µM | > 25 µM | 19.5 µM | > 25 µM | > 25 µM | > 25 µM | 17.7 µM | > 25 µM | 7.53 µM | > 25 µM | 11.2 µM | > 25 µM | > 25 µM | > 25 µM |
